Consider 16 compounds from ChEMBL document CHEMBL3217547, “3-Substituted coumarins as dual inhibitors of AChE and MAO for the treatment of Alzheimer's disease” (Medchemcomm, 2012).

The term inhibition denotes the change of the read-out against control, counted positive when it falls. For orientation: IC50 means the concentration needed to halve the response being measured.

The target in data set [1] is T1, Amine oxidase [flavin-containing] B (Homo sapiens, UniProt P27338).
T1 sequence (P27338 whole entry): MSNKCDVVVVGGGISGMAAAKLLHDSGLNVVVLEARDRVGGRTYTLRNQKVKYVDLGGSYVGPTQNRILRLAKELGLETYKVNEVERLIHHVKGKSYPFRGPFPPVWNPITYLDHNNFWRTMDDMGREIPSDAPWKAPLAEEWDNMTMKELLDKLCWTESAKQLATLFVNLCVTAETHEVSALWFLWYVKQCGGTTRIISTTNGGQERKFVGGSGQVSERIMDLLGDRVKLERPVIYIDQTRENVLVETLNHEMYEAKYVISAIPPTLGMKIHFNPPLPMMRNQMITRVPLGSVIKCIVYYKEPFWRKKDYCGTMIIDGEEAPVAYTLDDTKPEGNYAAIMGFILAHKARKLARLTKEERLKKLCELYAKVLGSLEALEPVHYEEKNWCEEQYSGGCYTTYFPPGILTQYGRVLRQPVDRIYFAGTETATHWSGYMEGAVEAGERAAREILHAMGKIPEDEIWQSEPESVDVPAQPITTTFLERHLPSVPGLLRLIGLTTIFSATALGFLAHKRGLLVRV
As to the kind of experiment: Inhibition of recombinant human MAO-B assessed as production of hydrogen peroxide from p-tyramine up to 100 uM after 15 mins by Amplex Red assay. Conditions: 0.25 h.

Data set [2] addresses T2, Amine oxidase [flavin-containing] A (Homo sapiens, UniProt P21397).
T2 sequence (P21397 whole entry): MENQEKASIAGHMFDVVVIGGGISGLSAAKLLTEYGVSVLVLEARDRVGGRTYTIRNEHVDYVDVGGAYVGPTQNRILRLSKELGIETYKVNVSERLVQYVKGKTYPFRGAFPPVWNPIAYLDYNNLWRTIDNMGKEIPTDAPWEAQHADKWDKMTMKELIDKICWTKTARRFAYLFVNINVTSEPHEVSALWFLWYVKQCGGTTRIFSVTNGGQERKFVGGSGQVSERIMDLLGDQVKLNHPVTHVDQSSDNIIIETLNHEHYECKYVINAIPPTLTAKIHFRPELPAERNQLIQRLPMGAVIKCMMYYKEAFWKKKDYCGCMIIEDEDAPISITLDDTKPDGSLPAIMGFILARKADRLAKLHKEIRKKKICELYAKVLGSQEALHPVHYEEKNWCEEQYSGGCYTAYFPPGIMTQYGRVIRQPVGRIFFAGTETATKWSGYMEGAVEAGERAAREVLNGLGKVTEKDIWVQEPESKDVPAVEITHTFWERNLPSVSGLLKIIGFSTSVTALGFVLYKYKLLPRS
Nature of the data set: Inhibition of recombinant human MAO-A assessed as production of hydrogen peroxide from p-tyramine up to 100 uM after 15 mins by Amplex Red assay. As to conditions: 0.25 h.

Data set [3] addresses T3, Acetylcholinesterase (Homo sapiens, UniProt P22303). Nature of the data set: Inhibition of recombinant human AChE expressed in HEK293 cells using acetylthiocholine iodide as substrate at 100 uM preincubated for 5 mins before substrate addition measured after 10 mins by Ellman's method.
The target in data set [4] is T3, Acetylcholinesterase. Nature of the data set: Inhibition of recombinant human AChE expressed in HEK293 cells using acetylthiocholine iodide as substrate preincubated for 5 mins before substrate addition measured after 10 mins by Ellman's method.
Data set [5] has as its target T1, Amine oxidase [flavin-containing] B.
Description: Inhibition of recombinant human MAO-B assessed as production of hydrogen peroxide from p-tyramine after 15 mins by Amplex Red assay
For data set [6], the target named is T2, Amine oxidase [flavin-containing] A. As to the kind of experiment: Inhibition of recombinant human MAO-A assessed as production of hydrogen peroxide from p-tyramine after 15 mins by Amplex Red assay.
The target in data set [7] is T1, Amine oxidase [flavin-containing] B. As to the kind of experiment: Inhibition of recombinant human MAO-B assessed as production of hydrogen peroxide from p-tyramine at 100 uM after 15 mins by Amplex Red assay. As to conditions: 0.25 h.

Calls of active or inactive are those of the source. The calls are words filed in the database; no cut-off is given here.

T3 sequence (P22303 whole entry): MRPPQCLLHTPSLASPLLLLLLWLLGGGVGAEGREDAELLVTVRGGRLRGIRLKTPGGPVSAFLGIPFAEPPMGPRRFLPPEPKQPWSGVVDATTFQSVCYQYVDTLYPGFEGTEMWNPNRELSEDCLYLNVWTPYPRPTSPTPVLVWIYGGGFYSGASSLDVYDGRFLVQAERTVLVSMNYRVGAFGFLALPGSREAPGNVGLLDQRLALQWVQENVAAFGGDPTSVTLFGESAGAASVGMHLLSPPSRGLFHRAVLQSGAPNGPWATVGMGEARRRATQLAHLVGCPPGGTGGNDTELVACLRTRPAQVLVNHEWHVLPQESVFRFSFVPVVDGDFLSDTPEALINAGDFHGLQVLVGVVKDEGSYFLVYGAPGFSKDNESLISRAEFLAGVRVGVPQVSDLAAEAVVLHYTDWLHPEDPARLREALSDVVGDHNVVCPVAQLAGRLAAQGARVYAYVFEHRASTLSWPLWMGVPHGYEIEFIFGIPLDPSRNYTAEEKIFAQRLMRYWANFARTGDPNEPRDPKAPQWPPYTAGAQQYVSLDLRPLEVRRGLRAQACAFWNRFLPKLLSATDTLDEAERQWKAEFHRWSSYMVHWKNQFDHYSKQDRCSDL

For `O=C(CCl)Nc1cc2ccccc2oc1=O`, the “inhibition (INH)” value in data set [1] and in data set [2] was “Not Active” each time. Further, the inhibition result on Acetylcholinesterase [3] was “inactive”.
Take `O=C(Nc1cc2ccccc2oc1=O)c1ccc(Cl)c(Cl)c1`: the “inhibition (INH)” value in data set [2] is “Not Active”. In addition, the IC50 on Acetylcholinesterase [4] worked out at 15 µM; in data set [5] it was 5.95 µM.
As to `COc1ccc(C(=O)Nc2cc3ccccc3oc2=O)cc1OC`, the “inhibition (INH)” value in data set [2] was “Not Active”. This compound also yielded an IC50 in data set [5] of 58.4 µM. In addition, the inhibition entry at Acetylcholinesterase [3] was “inactive”.
Regarding `O=c1oc2ccccc2cc1-c1ccccc1`, the “inhibition (INH)” value in data set [2] is listed as “Not Active”. For the same compound, on Acetylcholinesterase [3], the inhibition entry was “inactive”.
On to `Cc1ccc(C(=O)Nc2cc3ccccc3oc2=O)cc1`, for which the “inhibition (INH)” value in data set [2] was “Not Active”. Also, the IC50 came to 18.4 µM on Acetylcholinesterase [4] and 7.96 µM in data set [5].
For the compound `Cc1ccc(C(=O)Nc2cc3cc(C)ccc3oc2=O)cc1`, the results for the IC50 (on Acetylcholinesterase [4]; in data set [6]; in data set [5]) were 41.4 µM, 46 µM and 0.17 µM, respectively.
Turning to `O=C(Nc1cc2ccccc2oc1=O)c1ccc(Cl)cc1`, the “inhibition (INH)” value in data set [2] is “Not Active”. The IC50 was determined as 18.7 µM at Acetylcholinesterase [4] and 1.95 µM in data set [5].
For `Cc1ccc(-c2cc3cc(C)ccc3oc2=O)cc1`, in data set [2], the “inhibition (INH)” value is “Not Active”. Further, on Acetylcholinesterase [3], the inhibition result was “inactive”.
In the case of `O=C(CBr)Nc1cc2ccccc2oc1=O`, the “inhibition (INH)” value in data set [1] and in data set [2] was “Not Active” each time. Also, the inhibition entry at Acetylcholinesterase [3] is “inactive”.
In the case of `O=C(Nc1cc2ccccc2oc1=O)C1CCCCC1`, in data set [2], the “inhibition (INH)” value is recorded as “Not Active”. The same compound returned an IC50 in data set [5] of 50 µM. For the same compound, the inhibition entry on Acetylcholinesterase [3] was “inactive”.
On to `CC(=O)Nc1cc2ccccc2oc1=O`, for which, in data set [7], the inhibition at 100 µM worked out at 40%. In addition, the IC50 in data set [6] is 38.9 µM. The inhibition entry at Acetylcholinesterase [3] was “inactive”.
In the case of `Cc1ccc2oc(=O)c(-c3ccccc3)cc2c1`, in data set [2], the “inhibition (INH)” value is “Not Active”. Also, the inhibition result at Acetylcholinesterase [3] was “inactive”.
`COc1cc(C(=O)Nc2cc3ccccc3oc2=O)cc(OC)c1OC`: the “inhibition (INH)” value in data set [2] is “Not Active”. The compound also registered an IC50 in data set [5] of 72.6 µM. The inhibition entry on Acetylcholinesterase [3] was “inactive”.
Regarding `O=C(Nc1cc2ccccc2oc1=O)c1ccc([N+](=O)[O-])cc1`, the “inhibition (INH)” value in data set [1] and in data set [2] was “Not Active” throughout. Also, the IC50 on Acetylcholinesterase [4] turned out to be 12.9 µM.
Regarding `COc1ccc(C(=O)Nc2cc3ccccc3oc2=O)cc1`, the “inhibition (INH)” value in data set [2] is on record as “Not Active”. Moreover, the IC50 on Acetylcholinesterase [4] came to 69.5 µM; in data set [5], 30.5 µM.
`O=C(Nc1cc2ccccc2oc1=O)c1ccccc1`: in data set [2], the “inhibition (INH)” value was “Not Active”. Further, in data set [5], the IC50 amounted to 0.76 µM. In addition, the inhibition result at Acetylcholinesterase [3] was “inactive”.
